Experimental findings from PubChem BioAssay AID248 (DTP/NCI, 2004) are described below.

The test system of the test is L1210 leukemia ip in BDF1 mice, survival T/C. The experiment in a line: NCI In Vivo Anticancer Drug Screen. Data for tumor model L1210 Leukemia (intraperitoneal) in B6D2F1 (BDF1) mice. Conditions: higher = longer survival. The method, boiled down:
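Antitumor effect is assessed in tumor-bearing animals. Survival in the compound arm is compared with a vehicle-dosed control arm and expressed as their quotient.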

The mark [1] stands for this setting: endpoint: mean survival time, dose: 100.0 mg/kg/injection, schedule: Q04DX002 (ip), vehicle: saline with Tween-80.
Where [2] appears, read: endpoint: mean survival time, dose: 200.0 mg/kg/injection, schedule: Q04DX002 (ip), vehicle: saline with Tween-80.
The mark [3] stands for this setting: endpoint: mean survival time, dose: 12.5 mg/kg/injection, schedule: Q01DX009 (ip), vehicle: saline.
[4] abbreviates: endpoint: mean survival time, dose: 12.5 mg/kg/injection, schedule: Q04DX003 (ip), vehicle: saline.
Setting [5] is: endpoint: mean survival time, dose: 25.0 mg/kg/injection, schedule: Q01DX009 (ip), vehicle: saline.
The mark [6] stands for this setting: endpoint: mean survival time, dose: 25.0 mg/kg/injection, schedule: Q04DX003 (ip), vehicle: saline.
The mark [7] stands for this setting: endpoint: mean survival time, dose: 50.0 mg/kg/injection, schedule: Q04DX003 (ip), vehicle: saline.

Where “and” joins values, the source holds several entries; their conditions need not be identical. Equal entries are not always repeated. Toxic doses and inconclusive results are not listed.

Regarding `COc1ccc(OC(=O)Nc2ccc(C)cc2Cl)cc1`, the T/C is 96 % of control and 104 % of control (endpoint: mean survival time, dose: 100.0 mg/kg/injection, schedule: Q01DX009 (ip), vehicle: saline with Tween-80); 103 % of control and 104 % of control under setting [1]; 97 % of control and 105 % of control (endpoint: mean survival time, dose: 200.0 mg/kg/injection, schedule: Q01DX009 (ip), vehicle: saline with Tween-80); 100 % of control and 107 % of control under setting [2]; 105 % of control and 108 % of control (endpoint: mean survival time, dose: 400.0 mg/kg/injection, schedule: Q01DX009 (ip), vehicle: saline with Tween-80); 96 % of control and 106 % of control (endpoint: mean survival time, dose: 400.0 mg/kg/injection, schedule: Q04DX002 (ip), vehicle: saline with Tween-80).

For `C/C(=N/Nc1ccc([N+](=O)[O-])cc1[N+](=O)[O-])c1ccccc1`, the T/C (endpoint: mean survival time, dose: 100.0 mg/kg/injection, schedule: Q04DX003 (ip), vehicle: saline with Tween-80) is 88 % of control; the T/C (endpoint: mean survival time, dose: 200.0 mg/kg/injection, schedule: Q04DX003 (ip), vehicle: saline with Tween-80) is 93 % of control; the T/C (endpoint: mean survival time, dose: 400.0 mg/kg/injection, schedule: Q04DX003 (ip), vehicle: saline with Tween-80) was 90 % of control.

For the compound `CC(CCc1ccccc1)NC(C)C(O)c1ccc(O)cc1` (stereo not drawn), the T/C by setting is: (endpoint: mean survival time, dose: 6.25 mg/kg/injection, schedule: Q01DX009 (ip), vehicle: saline) 101 % of control; under setting [3], 104 % of control; under setting [4], 94 % of control; under setting [5], 98 % of control; under setting [6], 102 % of control; (endpoint: mean survival time, dose: 50.0 mg/kg/injection, schedule: Q01DX009 (ip), vehicle: saline) 97 % of control. Further, the T/C is 94 % of control under setting [7]; 97 % of control (endpoint: mean survival time, dose: 100.0 mg/kg/injection, schedule: Q01DX009 (ip), vehicle: saline); 89 % of control (endpoint: mean survival time, dose: 100.0 mg/kg/injection, schedule: Q04DX003 (ip), vehicle: saline).

Consider `CC1OC(=O)C(C2OC2C)=CC1O` (stereo not drawn), for which the T/C is 97 % of control under setting [3]; 101 % of control under setting [4]; 108 % of control under setting [5]; 108 % of control under setting [6]; 114 % of control (endpoint: mean survival time, dose: 50.0 mg/kg/injection, schedule: Q01DX001 (ip), vehicle: saline); 92 % of control under setting [7].

On to `CCCCCCCCCC(=O)N1CCC(C)CC1`, for which the T/C is, setting by setting: (endpoint: mean survival time, dose: 100.0 mg/kg/injection, schedule: Q04DX002 (ip), vehicle: saline) 111 % of control; (endpoint: mean survival time, dose: 200.0 mg/kg/injection, schedule: Q04DX002 (ip), vehicle: saline) 104 % of control; (endpoint: mean survival time, dose: 400.0 mg/kg/injection, schedule: Q04DX002 (ip), vehicle: saline) 101 % of control.

For the compound `O=c1n[n+]([O-])ccn1C1OC(CO)C(O)C1O` (stereo not drawn), the T/C by setting is: (endpoint: mean survival time, dose: 100.0 mg/kg/injection, schedule: Q01DX005 (ip), vehicle: saline) 111 % of control; (endpoint: mean survival time, dose: 200.0 mg/kg/injection, schedule: Q01DX005 (ip), vehicle: saline) 111 % of control; (endpoint: mean survival time, dose: 200.0 mg/kg/injection, schedule: Q01DX009 (ip), vehicle: saline) 121 % of control; (endpoint: median survival time, dose: 200.0 mg/kg/injection, schedule: Q01DX009 (ip), vehicle: saline) 176 % of control; (endpoint: median survival time, dose: 250.0 mg/kg/injection, schedule: Q01DX009 (ip), vehicle: saline) 280 % of control; (endpoint: median survival time, dose: 300.0 mg/kg/injection, schedule: Q01DX009 (ip), vehicle: saline) 352 % of control. Moreover, the T/C by setting is: (endpoint: median survival time, dose: 350.0 mg/kg/injection, schedule: Q01DX009 (ip), vehicle: saline) 97 % of control; (endpoint: median survival time, dose: 400.0 mg/kg/injection, schedule: Q01DX009 (ip), vehicle: saline) 97 % of control; (endpoint: median survival time, dose: 450.0 mg/kg/injection, schedule: Q01DX009 (ip), vehicle: saline) 152 % of control.

Consider `Cc1ccc([N+](=O)[O-])cc1NC(=O)OCc1ccco1`, for which the T/C (endpoint: mean survival time, dose: 100.0 mg/kg/injection, schedule: Q01DX009 (ip), vehicle: Klucel (hydroxypropylcellulose) (HPC)) is 103 % of control; the T/C (endpoint: mean survival time, dose: 200.0 mg/kg/injection, schedule: Q01DX009 (ip), vehicle: Klucel (hydroxypropylcellulose) (HPC)) is 97 % of control; the T/C (endpoint: mean survival time, dose: 400.0 mg/kg/injection, schedule: Q01DX009 (ip), vehicle: Klucel (hydroxypropylcellulose) (HPC)) was 94 % of control.

Regarding `COc1cc2c(c(OC)c1OC)-c1ccc(OC)c(=O)cc1[C@@H](NC(=O)c1ccccc1)CC2`, the T/C was 87 % of control (endpoint: mean survival time, dose: 0.13 mg/kg/injection, schedule: Q01DX Z (ip), vehicle: methylcellulose (MC)); 120 % of control (endpoint: mean survival time, dose: 0.2 mg/kg/injection, schedule: Q01DX Z (ip), vehicle: methylcellulose (MC)); 122 % of control (endpoint: mean survival time, dose: 0.29 mg/kg/injection, schedule: Q01DX Z (ip), vehicle: methylcellulose (MC)); 95 % of control (endpoint: mean survival time, dose: 0.44 mg/kg/injection, schedule: Q01DX Z (ip), vehicle: methylcellulose (MC)); 101 % of control (endpoint: mean survival time, dose: 0.75 mg/kg/injection, schedule: Q01DX Z (ip), vehicle: methylcellulose (MC)); 103 % of control (endpoint: mean survival time, dose: 0.8 mg/kg/injection, schedule: Q01DX Z (ip), vehicle: methylcellulose (MC)). Moreover, the T/C was 106 % of control (endpoint: mean survival time, dose: 1.2 mg/kg/injection, schedule: Q01DX Z (ip), vehicle: methylcellulose (MC)); 108 % of control (endpoint: mean survival time, dose: 1.6 mg/kg/injection, schedule: Q01DX015 (ip), vehicle: carboxymethylcellulose (CMC)); 103 % of control (endpoint: mean survival time, dose: 1.8 mg/kg/injection, schedule: Q01DX Z (ip), vehicle: methylcellulose (MC)); 108 % of control (endpoint: mean survival time, dose: 2.5 mg/kg/injection, schedule: Q01DX015 (ip), vehicle: carboxymethylcellulose (CMC)); 105 % of control (endpoint: mean survival time, dose: 2.7 mg/kg/injection, schedule: Q01DX Z (ip), vehicle: methylcellulose (MC)); 123 % of control (endpoint: mean survival time, dose: 3.7 mg/kg/injection, schedule: Q01DX015 (ip), vehicle: carboxymethylcellulose (CMC)). Besides, the T/C was 114 % of control (endpoint: mean survival time, dose: 4.0 mg/kg/injection, schedule: Q01DX Z (ip), vehicle: methylcellulose (MC)); 104 % of control (endpoint: mean survival time, dose: 5.0 mg/kg/injection, schedule: Q01DX001 (ip), vehicle: carboxymethylcellulose (CMC)); 108 % of control (endpoint: mean survival time, dose: 5.6 mg/kg/injection, schedule: Q01DX015 (ip), vehicle: carboxymethylcellulose (CMC)); 86 % of control (endpoint: mean survival time, dose: 8.4 mg/kg/injection, schedule: Q01DX015 (ip), vehicle: carboxymethylcellulose (CMC)); 120 % of control (endpoint: mean survival time, dose: 10.0 mg/kg/injection, schedule: Q01DX001 (ip), vehicle: carboxymethylcellulose (CMC)); 118 % of control (endpoint: mean survival time, dose: 20.0 mg/kg/injection, schedule: Q01DX001 (ip), vehicle: carboxymethylcellulose (CMC)). Moreover, the T/C (endpoint: mean survival time, dose: 27.0 mg/kg/injection, schedule: Q01DX001 (ip), vehicle: carboxymethylcellulose (CMC)) was 120 % of control.

On to `Cc1cccc(Cl)c1NC(=O)C(Cl)Cl`, for which the T/C (endpoint: mean survival time, dose: 100.0 mg/kg/injection, schedule: Q04DX002 (ip), vehicle: Klucel (hydroxypropylcellulose) (HPC)) is 113 % of control; the T/C (endpoint: mean survival time, dose: 200.0 mg/kg/injection, schedule: Q04DX002 (ip), vehicle: Klucel (hydroxypropylcellulose) (HPC)) was 107 % of control; the T/C (endpoint: mean survival time, dose: 400.0 mg/kg/injection, schedule: Q04DX002 (ip), vehicle: Klucel (hydroxypropylcellulose) (HPC)) was 110 % of control.

Consider `NC(N)=N/N=C(\c1ccc(F)cc1)c1ccc(C(F)(F)F)cc1`, for which the T/C was 92 % of control (endpoint: mean survival time, dose: 9.5 mg/kg/injection, schedule: Q01DX001 (ip), vehicle: other); 97 % of control (endpoint: mean survival time, dose: 19.0 mg/kg/injection, schedule: Q01DX001 (ip), vehicle: other); 98 % of control (endpoint: mean survival time, dose: 38.0 mg/kg/injection, schedule: Q01DX001 (ip), vehicle: other).

With `CC1CN=C(c2ccc(O)c(O)c2O)S1` (stereo not drawn), the T/C is, setting by setting: (endpoint: mean survival time, dose: 75.0 mg/kg/injection, schedule: Q04DX002 (ip), vehicle: saline with Tween-80) 101 % of control; (endpoint: mean survival time, dose: 150.0 mg/kg/injection, schedule: Q04DX002 (ip), vehicle: saline with Tween-80) 101 % of control; (endpoint: mean survival time, dose: 300.0 mg/kg/injection, schedule: Q04DX002 (ip), vehicle: saline with Tween-80) 93 % of control.

For `C=Cc1nc2ccccc2[nH]1` (tested in a mixture with another compound), the T/C is, setting by setting: (endpoint: mean survival time, dose: 5.0 mg/kg/injection, schedule: Q01DX001 (ip), vehicle: saline) 95 % of control; (endpoint: mean survival time, dose: 10.0 mg/kg/injection, schedule: Q01DX001 (ip), vehicle: saline) 96 % of control; (endpoint: mean survival time, dose: 20.0 mg/kg/injection, schedule: Q01DX001 (ip), vehicle: saline) 96 % of control; (endpoint: mean survival time, dose: 80.0 mg/kg/injection, schedule: Q01DX001 (ip), vehicle: saline) 102 % of control.

Turning to `COC(=O)C[CH2][Pb]([c]1ccccc1)([c]1ccccc1)[c]1ccccc1`, the T/C is 102 % of control under setting [1] and 113 % of control under setting [2].
